Measured values as given in PubChem BioAssay AID1396 (The Scripps Research Institute Molecular Screening Center, 2008).
pIC50: −log10 of the molar value. Activity calls are given as the source filed them. How the calls were made is not given here.

Biological target: Signal transducer and activator of transcription 1-alpha/beta (Homo sapiens) (UniProt P42224)
Experiment: STAT1 signalling inhibitors, dose response, cell-based, NIH 3T3, luciferase reporter (AID 1396)
Settings: NIH 3T3 fibroblasts

Signal transducer and activator of transcription 1-alpha/beta (Homo sapiens), sequence (P42224 whole entry, looked up): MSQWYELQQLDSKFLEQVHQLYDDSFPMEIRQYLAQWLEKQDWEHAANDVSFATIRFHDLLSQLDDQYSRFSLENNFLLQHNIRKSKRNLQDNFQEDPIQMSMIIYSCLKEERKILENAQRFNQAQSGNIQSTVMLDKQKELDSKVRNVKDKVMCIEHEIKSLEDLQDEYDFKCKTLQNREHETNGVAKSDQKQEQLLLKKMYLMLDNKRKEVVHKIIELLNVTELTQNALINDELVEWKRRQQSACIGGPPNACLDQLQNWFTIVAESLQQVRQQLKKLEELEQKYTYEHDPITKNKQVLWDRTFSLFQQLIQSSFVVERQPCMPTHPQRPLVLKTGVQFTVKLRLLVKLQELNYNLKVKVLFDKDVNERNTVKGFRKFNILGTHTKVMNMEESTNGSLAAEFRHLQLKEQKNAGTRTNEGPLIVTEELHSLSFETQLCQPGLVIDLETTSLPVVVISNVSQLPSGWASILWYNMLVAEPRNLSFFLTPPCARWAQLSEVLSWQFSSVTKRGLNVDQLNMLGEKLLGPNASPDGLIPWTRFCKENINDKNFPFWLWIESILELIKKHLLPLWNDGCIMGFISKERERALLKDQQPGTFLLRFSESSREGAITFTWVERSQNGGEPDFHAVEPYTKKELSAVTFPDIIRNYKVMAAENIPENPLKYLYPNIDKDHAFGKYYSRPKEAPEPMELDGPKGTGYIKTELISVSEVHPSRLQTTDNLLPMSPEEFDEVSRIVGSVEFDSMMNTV

Compound | IC50 | pIC50
COc1ccc(-c2cc(C(F)(F)F)nc(S(=O)(=O)CCCC(=O)Nc3cc(C)on3)n2)cc1OC | inactive | 
O=C(c1ccc2c(c1)N(Cc1ccccc1)C(=O)c1ccccc1S2)N1CCCC1 |  | 5.07
CCOC(=O)c1c(C)nc2sc3c(=O)n(-c4ccc(OC)cc4)nnc3c2c1-c1ccc(OC)cc1 | inactive | 
COc1ccc(-c2cc(C(F)(F)F)nc(S(=O)(=O)CCCC(=O)Nc3cccc(O)c3)n2)cc1OC | inactive | 
CS(=O)(=O)c1nc(-c2ccco2)cc(C(F)(F)F)n1 | > 18.6 µM (inactive) | 
COc1ccccc1CNc1ncnc2cc(Cl)ccc12 | > 55.7 µM (inactive) | 
Cc1ccc(-n2nc(C(=O)O)c3ccccc3c2=O)cc1C |  | 5.28
CCOC(=O)N1CCN(C(=O)/C=C/c2c(C)nn(-c3ccc(F)cc3)c2Cl)CC1 | inactive | 
Cn1c(C(=O)N2CCN(c3ccc([N+](=O)[O-])cc3)CC2)cc2c(=O)[nH]c3ccccc3c21 | inactive | 
Cc1ccc(S(=O)(=O)N2CCN(C(C(=O)Nc3ccc(F)cc3)c3ccccc3)CC2)cc1 (centres undefined) |  | 5.10
CC1(C)Cc2c(ccc3ccccc23)C2=C(C(=O)N3CCCC3)C(=O)C(=O)N21 | inactive | 
Cc1cc(=O)n(C(NC(=O)c2ccccc2)C(=O)c2ccccc2)cn1 (centres undefined) |  | 5.03
Cc1ccccc1NC(=O)C(=Cc1ccc(C(=O)O)cc1)C(=O)Nc1ccccc1C | inactive | 
COc1ccc(CCNC(=O)Cn2c(=O)n(-c3ccc(F)cc3)c(=O)c3sccc32)cc1OC | inactive | 
CCOC(=O)CCS(=O)(=O)c1nc(-c2ccccc2)cc(C(F)(F)F)n1 | inactive | 
COc1ccccc1-c1cc(C(F)(F)F)nc(S(C)(=O)=O)n1 | > 18.6 µM (inactive) | 
O=c1cc(CSc2nc3ccccc3c(=O)[nH]2)c2ccc(O)cc2o1 |  | 5.36
CCOc1cc(-c2noc(N)c2C#N)cc(OCC)c1OCC | > 55.7 µM (inactive) | 
COc1ccc(CNc2ncnc3cc(Cl)ccc23)cc1OC | inactive | 
COC(=O)C1=CN(Cc2ccc(OC)c(OC)c2)C=C(C(=O)OC)C1c1cccs1 | inactive | 
O=C(c1ccc(Cl)cc1)N1CCN(c2ccnc3cc(Cl)ccc23)CC1 | > 55.7 µM (inactive) | 
CCOC(=O)N1CCN(C(=O)c2ccc(CSc3ccc(Cl)cc3)cc2)CC1 | > 55.7 µM (inactive) | 
Cc1cccc(/C=C(\c2nc3ccccc3[nH]2)S(=O)(=O)c2ccccc2)c1 | > 55.7 µM (inactive) | 
Cc1cc(NC(=O)CCCS(=O)(=O)c2nc(-c3cccs3)cc(C(F)(F)F)n2)no1 | inactive | 
O=C(CSc1nc2ccccc2c(=O)[nH]1)c1ccc(O)cc1O |  | 5.03

Compound | IC50 | pIC50
CCn1c(O)c(/C=N/NC(=O)c2ccncc2)c(=O)n(CC)c1=S |  | 5.35
Cn1nnnc1Sc1ncnc2scc(-c3ccc(F)cc3)c12 | inactive | 
COC(=O)CCS(=O)(=O)c1nc(-c2ccccc2)cc(C(F)(F)F)n1 | inactive | 
CCn1c(=O)c2cc(C(=O)N3CCCC3)sc2c2ccccc21 | inactive | 
CS(=O)(=O)c1nc(-c2ccc(F)cc2)cc(C(F)(F)F)n1 | inactive | 
O=C(NNC(=O)c1cccc(S(=O)(=O)N2CCc3ccccc32)c1)c1ccccc1 | > 55.7 µM (inactive) | 
Cc1ccccc1-c1noc(N)c1C#N | > 55.7 µM (inactive) | 
Cc1ccc(-c2csc3ncnc(Sc4nnc(CN5CCCCCC5=O)o4)c23)cc1 |  | 5.17
O=C(c1ccco1)N1CCN(c2ncnc3c2[nH]c2ccc(Br)cc23)CC1 | inactive | 
COc1ccccc1-c1cc(C(F)(F)F)nc(S(=O)(=O)CCCC(=O)N2CCOCC2)n1 | > 6.19 µM (inactive) | 
COc1ccc(-c2cc(C(F)(F)F)nc(S(=O)(=O)CCCC(=O)Nc3cccnc3Cl)n2)cc1OC | inactive | 
COc1ccc(-n2c(SCc3cccnc3)nc3c(c2=O)SCC3)cc1OC | inactive | 
CN1CCN(Cc2nc3ccccc3c(=O)n2Cc2nc(-c3ccc4ccccc4c3)cs2)CC1 |  | 5.02
Cc1ccc(C(=O)Nc2cccc(N(C)S(C)(=O)=O)c2)cc1S(=O)(=O)Nc1ccccc1 | inactive | 
COc1ccc(CCNc2ncnc3cc(OC)c(OC)cc23)cc1OC | > 55.7 µM (inactive) | 
CCOC(=O)N1CCN(C(=O)c2ccc(-n3c(=S)[nH]c4ccccc4c3=O)cc2)CC1 |  | 5.46
CCN(CC)S(=O)(=O)c1ccc(N2CCOCC2)c(NC(=O)c2cc(-c3ccccn3)nc3ccccc23)c1 | inactive | 
CN1CCN(Cc2nc3ccccc3c(=O)n2Cc2nc(-c3cccc([N+](=O)[O-])c3)cs2)CC1 | inactive | 
COCC(C)NC(=O)CCS(=O)(=O)c1nc(-c2ccc(OC)cc2)cc(C(F)(F)F)n1 (centres undefined) | inactive | 
C#Cc1ccc([C@H]2C=C(C(=O)OCC=C)O[C@@H](OCC)[C@@H]2CCCO)cc1 | inactive | 
Cc1ccc2[nH]c3c(N4CCN(Cc5ccccc5)CC4)ncnc3c2c1 | > 55.7 µM (inactive) | 
CS(=O)(=O)c1nc(-c2ccccc2)cc(C(F)(F)F)n1 |  | 5.00
COc1ccccc1-c1cc(C(F)(F)F)nc(S(=O)(=O)CCCC(=O)Nc2cccnc2Cl)n1 | > 18.6 µM (inactive) | 
CN1CCN(Cc2nc3ccccc3c(=O)n2Cc2nc(-c3ccccc3F)cs2)CC1 |  | 5.37
